Results on four molecules are retold here after ChEMBL document CHEMBL1201862, “PubChem BioAssay data set” (2004).

Experiment [1] can be described thus: rise of 2N DNA cells, HeLa – IC50, dose response (AID 1117349). The class given is functional, cell-based.
Experiment [2] can be described thus: cytotoxicity toward HCT116 cells – cell-based, CellTiter-Glo luminescence, IC50, dose response (AID 1117332). The settings on record: HCT-116. The class given is functional. A general note: ATP-based viability assays read luminescence as a measure of living cells.
Experiment [3] in a line: SNU-C1 cell viability reduction, dose response, CellTiter-Glo luminescence (AID 1117323). The class given is functional, cell-based.
Experiment [4] can be described thus: rise of 4N DNA cells, HeLa – IC50, dose response (AID 1117351). The class given is functional, cell-based.
The nature of experiment [5]: cytotoxicity toward HT-29 cells – cell-based, CellTiter-Glo luminescence, IC50, dose response (AID 1117330). The class given is functional.
The nature of experiment [6]: Reduced DLD-1 viability, concentration-response, CellTiter-Glo luminescence (AID 1117352). The class given is functional.
A short description of experiment [7]: HCT116 cell viability decrease, GSK3B pretreatment – CellTiter-Glo, IC50, dose response (AID 1117339). The class given is functional. The settings on record: HCT-116.
Experiment [8] in a line: inhibitors of TRPM1-promoter reporter in SK-MEL-5 – cell-based, luciferase, dry powder, set 9, MITF inhibitor project, dose response (AID 651588). The class given is functional.
Experiment [9] can be described thus: cytotoxicity in MITF-independent A375 cells – cell-based, CellTiter-Glo luminescence, dry powder, set 4, counter-screen for MITF inhibitor project, dose response (AID 624364).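 Note: A375 melanoma cells are MITF independent so this is a counter screen.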 The class given is functional. The settings on record: A-375.
Experiment [10] in a line: viability loss in MITF-independent A375 cells – cell-based, CellTiter-Glo luminescence, dry powder, set 7, counter-screen for MITF inhibitor project, dose response (AID 624490). The settings on record: A-375. The class given is functional.
Experiment [11] can be described thus: MITF Orthogonal Assay: MALME3 CTG Assay Measured in Cell-Based System Using Plate Reader - 2084-04_Inhibitor_Dose_DryPowder_Activity_Set6. The class given is functional. The settings on record: MALME-3.
A short description of experiment [12]: growth inhibition of SK-MEL-5 melanoma cells – cell-based, CellTiter-Glo luminescence, dry powder, set 8, orthogonal assay for MITF inhibitor project, dose response (AID 651586). The class given is functional.
Experiment [13] in a line: growth inhibition of MALME3 cells – cell-based, CellTiter-Glo luminescence, dry powder, set 5, orthogonal assay for MITF inhibitor project, dose response (AID 651584). The settings on record: MALME-3. The class given is functional.
Experiment [14] can be described thus: cytotoxicity in melanoma parental cells – cell-based, CellTiter-Glo, dry powder, set 6, MITF inhibitor project, dose response (AID 624429). The following applies: SK-MEL-5. The class given is functional.
Experiment [15] in a line: MITF Orthogonal Assay: SK-MEL-5 CTG Assay Measured in Cell-Based System Using Plate Reader - 2084-02_Inhibitor_Dose_DryPowder_Activity_Set5. The class given is functional.
Experiment [16] in a line: MITF Measured in Cell-Based System Using Plate Reader - 2084-01_Inhibitor_Dose_DryPowder_Activity_Set6. The class given is functional.
Experiment [17] is described as follows: MITF Measured in Cell-Based System Using Plate Reader - 2084-01_Inhibitor_Dose_DryPowder_Activity_Set7. The class given is functional.
Experiment [18] in a line: melanocyte viability loss, MITF-dependent cells, cell-based, plate reader, dry powder, cytotoxicity control, dose response (AID 651920). The class given is functional.
In experiment [19] the target is T1, RNA-binding protein pos-1 (Caenorhabditis elegans, UniProt G5EF15).
T1 sequence (G5EF15 whole entry): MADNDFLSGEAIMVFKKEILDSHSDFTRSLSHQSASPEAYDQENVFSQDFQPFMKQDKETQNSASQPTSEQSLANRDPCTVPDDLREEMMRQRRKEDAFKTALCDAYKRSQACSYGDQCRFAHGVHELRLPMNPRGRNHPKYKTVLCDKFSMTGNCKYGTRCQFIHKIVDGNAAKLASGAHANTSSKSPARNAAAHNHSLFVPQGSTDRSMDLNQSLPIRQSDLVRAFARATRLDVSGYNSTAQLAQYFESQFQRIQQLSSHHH
Nature of the experiment: disruptors of C. elegans POS-1 RNA interaction – biochemical, fluorescence polarization, dose response (AID 1964).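 Note: purified POS-1 fused to maltose binding protein made in E. coli; potency of compounds blocking POS-1 binding to fluorescent RNA.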 For orientation: Fluorescence polarisation rises when a labelled molecule tumbles more slowly, as on binding a larger partner.

Experiment [20] concerns the target T2, Mannose-6-phosphate isomerase (Homo sapiens, UniProt P34949).
T2 sequence (P34949 whole entry): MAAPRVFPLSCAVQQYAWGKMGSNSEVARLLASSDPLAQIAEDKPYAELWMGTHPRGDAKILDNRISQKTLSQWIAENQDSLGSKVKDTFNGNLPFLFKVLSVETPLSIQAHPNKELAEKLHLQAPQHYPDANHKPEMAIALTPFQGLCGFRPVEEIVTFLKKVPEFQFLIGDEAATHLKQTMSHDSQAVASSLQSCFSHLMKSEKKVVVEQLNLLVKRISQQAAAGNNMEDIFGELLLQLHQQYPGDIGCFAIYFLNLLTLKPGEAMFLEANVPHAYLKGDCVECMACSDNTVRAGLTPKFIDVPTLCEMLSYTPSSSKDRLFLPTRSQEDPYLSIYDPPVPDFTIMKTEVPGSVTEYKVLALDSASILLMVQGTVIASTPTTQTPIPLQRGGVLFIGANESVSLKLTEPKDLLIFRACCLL
Description: MPI enzyme activity inhibition – biochemical, fluorescence intensity, coupled assay, primary screen (AID 1209).

In experiment [21] the target is Induced myeloid leukemia cell differentiation protein Mcl-1 (Homo sapiens, UniProt Q07820). The class given is functional.
Sequence of Induced myeloid leukemia cell differentiation protein Mcl-1 (Q07820 whole entry): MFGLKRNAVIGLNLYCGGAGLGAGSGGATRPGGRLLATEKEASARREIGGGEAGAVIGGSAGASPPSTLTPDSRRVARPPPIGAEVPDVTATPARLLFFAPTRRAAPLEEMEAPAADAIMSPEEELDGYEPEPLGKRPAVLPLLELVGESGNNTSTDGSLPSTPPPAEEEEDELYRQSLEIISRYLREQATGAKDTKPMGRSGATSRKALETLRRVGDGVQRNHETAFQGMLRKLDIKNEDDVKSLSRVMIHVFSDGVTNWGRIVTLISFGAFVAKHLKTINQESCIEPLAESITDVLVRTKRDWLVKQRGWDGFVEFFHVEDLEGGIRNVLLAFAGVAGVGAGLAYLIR
Experiment [22] concerns the target T2, Mannose-6-phosphate isomerase. Nature of the experiment: MPI inhibition at elevated mannose 6-phosphate – biochemical, fluorescence intensity, high mannose 6-phosphate, primary screen (AID 1220).
In experiment [23] the target is Glucose-6-phosphate 1-dehydrogenase (Homo sapiens, UniProt P11413). Description: inhibition of Homo sapiens G6PD, dose series – biochemical, fluorescence, selectivity assay for P. falciparum G6PD inhibitor project, dose response (AID 504792). The class given is functional.
Sequence of Glucose-6-phosphate 1-dehydrogenase (P11413 whole entry): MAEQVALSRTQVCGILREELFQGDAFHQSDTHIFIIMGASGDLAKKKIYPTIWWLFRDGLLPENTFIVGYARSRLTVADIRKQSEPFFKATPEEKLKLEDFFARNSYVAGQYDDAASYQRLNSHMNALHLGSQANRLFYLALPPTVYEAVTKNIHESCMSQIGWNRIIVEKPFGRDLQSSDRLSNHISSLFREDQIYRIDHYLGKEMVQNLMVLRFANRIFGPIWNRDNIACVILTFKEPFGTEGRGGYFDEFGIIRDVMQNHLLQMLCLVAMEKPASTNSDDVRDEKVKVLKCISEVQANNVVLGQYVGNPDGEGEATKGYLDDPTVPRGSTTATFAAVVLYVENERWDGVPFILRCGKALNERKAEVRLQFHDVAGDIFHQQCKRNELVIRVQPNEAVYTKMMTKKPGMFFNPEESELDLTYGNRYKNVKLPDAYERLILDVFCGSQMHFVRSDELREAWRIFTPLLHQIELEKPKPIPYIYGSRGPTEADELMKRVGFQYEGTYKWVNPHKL
Experiment [24] has as its target Genome polyprotein (dengue virus type 2, UniProt P29990). Description: flavivirus cap methylation enzyme inhibition – biochemical, confirmation dose response, primary screen (AID 588689). The class given is functional.
For experiment [25], the target named is Albumin (Bos taurus, UniProt P02769). Description: Counterscreen for inhibitors of T-cell receptor (TCR)-CD3 interaction: Fluorescence-based biochemical high throughput dose response assay to identify inhibitors of T-cell receptor (TCR)-CD3 interaction using a TAMRA-labeled BSA probe. The class given is functional.
Sequence of Albumin (P02769 whole entry): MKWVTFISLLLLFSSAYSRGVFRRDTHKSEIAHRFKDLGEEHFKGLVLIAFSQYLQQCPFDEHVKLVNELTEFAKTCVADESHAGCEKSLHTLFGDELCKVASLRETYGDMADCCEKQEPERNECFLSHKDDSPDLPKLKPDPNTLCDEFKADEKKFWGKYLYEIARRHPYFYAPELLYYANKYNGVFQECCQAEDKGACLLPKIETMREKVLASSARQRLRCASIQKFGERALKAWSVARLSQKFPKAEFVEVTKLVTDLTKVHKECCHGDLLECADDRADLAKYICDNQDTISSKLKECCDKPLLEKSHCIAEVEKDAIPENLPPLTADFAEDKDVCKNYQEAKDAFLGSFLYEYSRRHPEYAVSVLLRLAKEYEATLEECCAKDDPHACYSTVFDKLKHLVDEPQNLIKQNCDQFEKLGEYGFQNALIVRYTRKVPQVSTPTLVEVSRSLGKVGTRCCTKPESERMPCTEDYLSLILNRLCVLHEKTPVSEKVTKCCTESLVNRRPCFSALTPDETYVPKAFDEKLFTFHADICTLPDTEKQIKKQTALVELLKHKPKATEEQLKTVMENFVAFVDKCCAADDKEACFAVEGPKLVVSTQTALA
Experiment [26] concerns the target T3, Protein Tat (Human immunodeficiency virus type 1 group M subtype B (isolate HXB2)(HIV-1), UniProt P04608).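 Note: tat binding to TAR RNA read out by fluorescence polarization.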
T3 sequence (P04608 whole entry): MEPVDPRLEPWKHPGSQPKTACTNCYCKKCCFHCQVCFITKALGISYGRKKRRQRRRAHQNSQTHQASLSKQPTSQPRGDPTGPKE
The class given is functional.

Experiment [27] deals with Glutathione-S-transferase (Schistosoma japonicum, UniProt Q26513). Nature of the experiment: GST-antibody interaction or FRET quenching – biochemical, TR-FRET, artefact control for Vif-APOBEC3G degradation inhibitor project, dose response (AID 1117362). The class given is functional. In general terms: TR-FRET usually uses a lanthanide donor and a delayed reading to cut background.
Sequence of Glutathione-S-transferase (Q26513 whole entry): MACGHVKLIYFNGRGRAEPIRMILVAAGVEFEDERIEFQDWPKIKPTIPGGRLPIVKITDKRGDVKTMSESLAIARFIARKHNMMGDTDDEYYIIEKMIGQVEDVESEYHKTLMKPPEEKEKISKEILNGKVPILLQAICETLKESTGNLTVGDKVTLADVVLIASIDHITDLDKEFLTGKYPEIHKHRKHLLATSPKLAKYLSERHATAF

The target of experiment [28] is RNA-editing ligase 1, mitochondrial (Trypanosoma brucei brucei, UniProt P86926). Nature of the experiment: inhibition of trypanosome RNA editing ligase – biochemical, fluorescence, Trypanosoma brucei, dose response (AID 1117295). The class given is functional.
Sequence of RNA-editing ligase 1, mitochondrial (P86926 whole entry): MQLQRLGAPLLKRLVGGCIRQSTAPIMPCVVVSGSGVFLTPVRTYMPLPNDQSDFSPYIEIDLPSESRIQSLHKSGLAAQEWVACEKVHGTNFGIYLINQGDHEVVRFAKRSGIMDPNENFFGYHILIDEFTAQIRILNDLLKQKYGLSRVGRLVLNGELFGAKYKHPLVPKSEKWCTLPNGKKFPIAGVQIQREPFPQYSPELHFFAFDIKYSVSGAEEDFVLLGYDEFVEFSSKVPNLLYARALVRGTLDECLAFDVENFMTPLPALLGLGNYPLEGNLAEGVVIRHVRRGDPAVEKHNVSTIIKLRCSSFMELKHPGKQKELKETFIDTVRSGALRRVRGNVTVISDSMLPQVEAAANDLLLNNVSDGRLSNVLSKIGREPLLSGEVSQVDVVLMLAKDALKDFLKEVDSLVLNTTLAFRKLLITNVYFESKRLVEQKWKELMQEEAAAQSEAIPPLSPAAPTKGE
The nature of experiment [29]: growth inhibition of yeast DHODH-expressing 3D7 parasites – SYBR Green, dry powder samples, dose response (AID 1159570).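 Note: parasite growth measured after 72 hours of compound exposure.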 The class given is functional, cell-based.
The nature of experiment [30]: toxicity to human HepG2 hepatoma cells – cell-based, plate reader, dry powder samples, cytotoxicity control, dose response (AID 1159569).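 Note: inhibitor potency with signal falling toward the positive control level.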 The class given is functional.
A short description of experiment [31]: P. falciparum Dd2 growth inhibitors, dose response, SYBR Green, cherry-picked samples (AID 1159567). The class given is functional, cell-based.
Experiment [32] in a line: Dd2 malaria parasite growth inhibition potency – SYBR Green, dry powder samples, dose response (AID 1159566).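 Note: potency for growth inhibition with lower SYBR green DNA signal.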 The class given is functional, cell-based.
The nature of experiment [33]: toxicity to human hepatoma HepG2 cells – cell-based, cherry-picked samples, cytotoxicity control, dose response (AID 1159577). The class given is functional.
A short description of experiment [34]: Plasmodium falciparum Dd2 Sybr green parasite growth Measured in Cell-Based and Microorganism Combination System Using Plate Reader - 2153-01_Inhibitor_Dose_DryPowder_Activity_Set3. The class given is functional.
Experiment [35] in a line: growth inhibition of PfATP4-mutant resistant parasites – NITD609-resistant line, SYBR Green, dry powder, dose response (AID 1159571).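 Note: parasites synchronized at ring stage by sorbitol before testing.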 The class given is functional, cell-based.

Calls of active or inactive are those of the source.

Sequence of Genome polyprotein (P29990 2492-3391 limits assumed): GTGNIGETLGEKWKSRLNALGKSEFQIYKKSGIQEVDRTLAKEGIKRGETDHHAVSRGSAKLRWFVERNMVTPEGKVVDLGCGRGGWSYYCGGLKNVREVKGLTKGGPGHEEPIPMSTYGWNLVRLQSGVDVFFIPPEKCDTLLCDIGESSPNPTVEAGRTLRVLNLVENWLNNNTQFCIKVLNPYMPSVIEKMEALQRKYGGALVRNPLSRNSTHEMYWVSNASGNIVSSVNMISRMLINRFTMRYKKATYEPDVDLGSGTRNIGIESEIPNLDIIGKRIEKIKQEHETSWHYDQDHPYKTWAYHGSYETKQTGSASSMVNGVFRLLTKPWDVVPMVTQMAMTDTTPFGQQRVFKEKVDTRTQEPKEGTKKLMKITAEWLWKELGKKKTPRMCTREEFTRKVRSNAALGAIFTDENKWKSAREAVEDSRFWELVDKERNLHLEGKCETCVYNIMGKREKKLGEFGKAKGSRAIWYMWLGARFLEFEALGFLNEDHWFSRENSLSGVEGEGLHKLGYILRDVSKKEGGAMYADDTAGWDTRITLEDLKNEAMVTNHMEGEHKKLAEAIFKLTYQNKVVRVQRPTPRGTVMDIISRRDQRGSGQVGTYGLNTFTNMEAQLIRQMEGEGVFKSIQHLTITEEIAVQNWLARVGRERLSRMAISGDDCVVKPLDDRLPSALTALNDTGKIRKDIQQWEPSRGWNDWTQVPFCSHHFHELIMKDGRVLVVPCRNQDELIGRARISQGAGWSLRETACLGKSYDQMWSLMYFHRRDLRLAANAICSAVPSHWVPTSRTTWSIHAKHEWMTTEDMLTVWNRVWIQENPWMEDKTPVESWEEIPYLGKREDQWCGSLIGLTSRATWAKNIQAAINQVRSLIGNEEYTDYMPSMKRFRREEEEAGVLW

Take `O=Cc1ccc(O)c(O)c1O`: the IC50 (usually the concentration that gives 50% inhibition) in experiment [1] was > 10 µM (inactive); in experiment [2], > 20 µM (inactive); in experiment [3] it was > 20 µM (inactive); in experiment [4] it was > 10 µM (inactive); in experiment [5], > 20 µM (inactive); in [6] it was > 20 µM (inactive). In experiment [7], the IC50 is 141 nM (active).

Take `O=C1C=C(NS(=O)(=O)c2ccc(Br)cc2)C(=O)c2ccccc21`: the AC50 – broadly, the midpoint of the concentration-response curve, whichever way the signal moves – in [8] was 18.8 µM (active); in [9], > 70 µM (inactive); in experiment [10], > 70 µM (inactive); in [11], 24.4 µM (active); in experiment [12], 11.8 µM (active); in [13], 24.4 µM (active). The AC50 in [14] is 11.2 µM (active); in experiment [15] it was 13.1 µM (active); in experiment [16], 6.37 µM (active); in [17], 7.45 µM (active); in experiment [18], 14.5 µM (active).

Turning to `C/N=c1\scc(C)n1/N=C/c1ccc(O)c(O)c1O`, the EC50 (in general, the concentration at which the effect is half-maximal) in experiment [19] is > 300 µM (inconclusive). In addition, the IC50 in experiment [20] is > 50 µM (not active); in experiment [21], 2.72 µM (active); in experiment [22], > 50 µM (not active); in [23], 44 µM (inactive); in [24], 13.9 µM (active); in experiment [25] it was > 94.1 µM (inactive). Further, the IC50 in [26] was 49.8 µM (inconclusive); in [27], > 100 µM (active); in experiment [28], > 96.6 µM (inactive).

`CC(C)NC(=O)N1[C@H](C#N)[C@H](c2ccc(-c3ccc(F)cc3)cc2)[C@H]1CO`: the AC50 was 18.2 µM (active) in [29]; 79.5 µM (active) in [30]; 858 nM (active) in experiment [31]; 442 nM (active) in [32]; 25.6 µM (active) in experiment [33]; 2.93 µM (active) in experiment [34]. In addition, the AC50 in experiment [35] is 469 nM (active).
